Measured values taken from patent US5804583A, “Pyrimidinone derivatives fused to nitrogen heterocycles having a II antagonistic activity” (Istituto Luso Farmaco D'Italia, priority 1993, dated 1998).

Key:
A II receptor [1] = experiment: receptor binding test: displacement of 125I-Sar1-Ile8-AT II or [3H] AT II in the rat adrenal cortex
Text: (§1) The compounds described in the present invention act as antagonists at the A II receptor level. For the characterization and the evaluation of the effectiveness of the compounds of the invention, in vitro tests (such as the inhibition of the A II-induced contraction in the rabbit aorta and the displacement of ^125 I-Sar^1 -Ile^8 -AT II or [^3 H] AT II in the rat adrenal cortex) and an in vivo test (the inhibition of the A II-induced pressory response in the ganglio-blocked normotensive rat) were selected.

A II receptor [2] = experiment: inhibition of the A II-induced contraction in the rabbit aorta
Text: as §1

Ki (A II receptor [1]): 5 nM
SMILES: CCCCc1c(Cc2ccc(-c3ccccc3-c3nnn[nH]3)cc2)c(=O)nc2n1C(C)C(=O)N2 (centres unmarked) [ex.6, 5-butyl-3-methyl-6-[[2'-(1H-tetrazol-5-yl)biphenyl-4-yl]methyl]imidazo[1,2-a]pyrimidin-2,7-dione]
PKB (A II receptor [2]): 10.4
